Assay results reported in the NIST ThermoML archive (doi:10.1016/j.jct.2014.10.008).
Numbers after ± are expanded uncertainties.

Experiment: osmotic coefficient (dimensionless); mn = molality of the nth substance listed, in mol/kg
Conditions: 101 kPa, Liquid, Vapor pressure osmometer - Knauer K-7000

CCCC[N+]1(C)CCCC1.N#CN=C=[N-] [1-butyl-1-methylpyrrolidinium dicyanamide] + O
Conditions | osmotic coefficient
313.15 K, m1 = 0.0272 | 0.915 ± 0.014
313.15 K, m1 = 0.0491 | 0.849 ± 0.015
313.15 K, m1 = 0.0864 | 0.734 ± 0.016
313.15 K, m1 = 0.1088 | 0.697 ± 0.016
313.15 K, m1 = 0.1499 | 0.68 ± 0.017
313.15 K, m1 = 0.1968 | 0.627 ± 0.018
313.15 K, m1 = 0.3968 | 0.503 ± 0.021
313.15 K, m1 = 0.5057 | 0.471 ± 0.022
313.15 K, m1 = 0.7825 | 0.433 ± 0.023
313.15 K, m1 = 0.9665 | 0.416 ± 0.024
313.15 K, m1 = 1.474 | 0.373 ± 0.025
323.15 K, m1 = 0.0272 | 0.982 ± 0.015
323.15 K, m1 = 0.0512 | 0.879 ± 0.013
323.15 K, m1 = 0.0928 | 0.855 ± 0.013
323.15 K, m1 = 0.112 | 0.846 ± 0.013
323.15 K, m1 = 0.1499 | 0.81 ± 0.014
323.15 K, m1 = 0.1968 | 0.747 ± 0.015
323.15 K, m1 = 0.2912 | 0.673 ± 0.017
323.15 K, m1 = 0.3968 | 0.656 ± 0.017
323.15 K, m1 = 0.5057 | 0.608 ± 0.018
323.15 K, m1 = 0.7825 | 0.538 ± 0.02
323.15 K, m1 = 0.9665 | 0.48 ± 0.022
323.15 K, m1 = 1.488 | 0.405 ± 0.024
328.15 K, m1 = 0.024 | 1.05 ± 0.013
328.15 K, m1 = 0.0896 | 0.859 ± 0.014
328.15 K, m1 = 0.1248 | 0.815 ± 0.014
328.15 K, m1 = 0.2032 | 0.747 ± 0.015
328.15 K, m1 = 0.2913 | 0.682 ± 0.017
328.15 K, m1 = 0.4017 | 0.642 ± 0.018
328.15 K, m1 = 0.5041 | 0.585 ± 0.019
328.15 K, m1 = 0.7825 | 0.559 ± 0.02
328.15 K, m1 = 0.973 | 0.498 ± 0.021
328.15 K, m1 = 1.496 | 0.424 ± 0.024

CCCCCCCC[n+]1ccn(C)c1.[Cl-] [1-methyl-3-octylimidazolium chloride] + O
Conditions | osmotic coefficient
313.15 K, m1 = 0.0346 | 1.05 ± 0.013
313.15 K, m1 = 0.0491 | 1 ± 0.016
313.15 K, m1 = 0.0809 | 0.816 ± 0.015
313.15 K, m1 = 0.1329 | 0.727 ± 0.016
313.15 K, m1 = 0.182 | 0.681 ± 0.017
313.15 K, m1 = 0.2455 | 0.617 ± 0.018
313.15 K, m1 = 0.2917 | 0.555 ± 0.02
313.15 K, m1 = 0.3582 | 0.531 ± 0.02
313.15 K, m1 = 0.4679 | 0.48 ± 0.022
313.15 K, m1 = 0.5228 | 0.45 ± 0.023
313.15 K, m1 = 0.6037 | 0.424 ± 0.024
313.15 K, m1 = 0.7323 | 0.383 ± 0.025
313.15 K, m1 = 0.8825 | 0.343 ± 0.026
313.15 K, m1 = 1.072 | 0.317 ± 0.027
313.15 K, m1 = 1.356 | 0.289 ± 0.028
313.15 K, m1 = 1.771 | 0.266 ± 0.029
323.15 K, m1 = 0.0419 | 1.1 ± 0.014
323.15 K, m1 = 0.052 | 1.06 ± 0.014
323.15 K, m1 = 0.0858 | 0.946 ± 0.013
323.15 K, m1 = 0.1118 | 0.918 ± 0.013
323.15 K, m1 = 0.182 | 0.726 ± 0.016
323.15 K, m1 = 0.2455 | 0.675 ± 0.017
323.15 K, m1 = 0.2917 | 0.633 ± 0.018
323.15 K, m1 = 0.3582 | 0.587 ± 0.019
323.15 K, m1 = 0.4679 | 0.54 ± 0.02
323.15 K, m1 = 0.5228 | 0.498 ± 0.021
323.15 K, m1 = 0.6037 | 0.464 ± 0.022
323.15 K, m1 = 0.7323 | 0.424 ± 0.024
323.15 K, m1 = 0.8825 | 0.384 ± 0.025
323.15 K, m1 = 1.072 | 0.345 ± 0.026
323.15 K, m1 = 1.356 | 0.31 ± 0.027
323.15 K, m1 = 1.771 | 0.3 ± 0.028
328.15 K, m1 = 0.0361 | 1.14 ± 0.013
328.15 K, m1 = 0.0506 | 1.12 ± 0.013
328.15 K, m1 = 0.0852 | 1.08 ± 0.012
328.15 K, m1 = 0.1329 | 1.07 ± 0.012
328.15 K, m1 = 0.1791 | 1.02 ± 0.012
328.15 K, m1 = 0.2484 | 0.962 ± 0.012
328.15 K, m1 = 0.2947 | 0.957 ± 0.012
328.15 K, m1 = 0.3568 | 0.929 ± 0.012
328.15 K, m1 = 0.468 | 0.906 ± 0.012
328.15 K, m1 = 0.5243 | 0.875 ± 0.013
328.15 K, m1 = 0.6052 | 0.844 ± 0.013
328.15 K, m1 = 0.7352 | 0.753 ± 0.015
328.15 K, m1 = 0.8826 | 0.689 ± 0.016
328.15 K, m1 = 1.072 | 0.624 ± 0.018
328.15 K, m1 = 1.359 | 0.556 ± 0.02
328.15 K, m1 = 1.774 | 0.479 ± 0.022
